Measured values from patent US20230310352A1, “NOVEL COMPOSITIONS AND METHODS FOR THE TREATMENT OF LUNG FIBROSIS” (LAURENT PHARMACEUTICALS INC., priority 2020, published 2023).
“Also recorded” adds a separate entry of the source.

Columns and labels:
[1] = test system: Cftr.KO mice; conditions: cited from earlier work
[2] = test system: bleomycin-induced lung fibrosis; experiment: Intratracheal bleomycin mouse model of pulmonary fibrosis (21-day model); type: in vivo, C57BL/6N mice; conditions: Day 21, oral once daily for 14 days
Method: Oral administration of a solid amorphous dispersion formulation of fenretinide (LAU-7b SDI) was evaluated in treating and/or reducing pulmonary fibrosis in mouse model of lung fibrosis induced via a single intratracheal administration of bleomycin followed by vehicle, fenretinide (LAU-7b SDI) or pirfenidone oral treatment for 21 days. The LAU-7b SDI formulation was obtained by spray drying and contains fenretinide in amorphous form in a solid dispersion comprising a matrix polymer, based on the following formula: 40% fenretinide, 59.6% povidone (KOLLIDON® 30), 0.24% butylated hydroxyanisole (BHA) and 0.16% butylated hydroxytoluene (BHT).
Male C57BL/6N mice from Charles River Laboratories, 10-12 weeks of age, weighing around 20-25 g, at the time of their enrolment, received 50 μL of bleomycin sulfate (2.0 mg/kg) by a single intratracheal instillation on Day 1 of the study. The Sham group received an equivalent volume of 0.9% saline. On Day 7 post-bleomycin instillation the animals were randomized in groups of 8 animals based on their body weight loss and Penh value. Oral dosing by gavage (10 mL/kg) with the vehicle (sham and BLM Control groups), LAU-7b SDI (fenretinide at 5 mg/kg and 10 mg/kg dose), and the reference compound (pirfenidone 100 mg/kg) were initiated once daily starting from Day 7 to Day 21. Two hours following the last dose on Day 21 all the mice were sacrificed, the lungs of each mouse were harvested, flushed with 0.9% NaCl and inflated with 10% neutral buffered formalin solution. After embedding and mounting of the lung tissue (transversal slices of 5 μm thickness), the histology slides were stained with hematoxylin/eosin for the Ashcroft score evaluation by a treatment-blinded pathologist, and with Sirius red staining for automated fibrosis quantification (Biocellvia, France).
As in Example 4, the key endpoints evaluated in this study were the Ashcroft score, pulmonary foci and collagen content obtained by histological assessment of the lung tissue at the end of the study. Statistical analysis was made on normally distributed data by one-way ANOVA followed by multiple comparisons (Fisher's LSD post hoc test) to assess the difference between the groups, using Graph Pad Prism Software version 8.0 (San Diego, CA, USA). Differences were considered statistically significant when P values were p<0.05 (*), or p<0.01 (**) or p<0.001 (***). The Ashcroft score was assessed in the lung tissue by treatment-blinded pathologist on the H&E stained histology slides (2 cross sections/animal) and using the modified Ashcroft scale. Briefly, each lung section was scanned at a magnification of ×100 (H&E staining), and graded from 0 (normal lung) to 8 (total fibrotic obliteration of the field). The mean value of the grades obtained for each of the two sections was used as the Ashcroft score.
Pulmonary foci (fibrotic tissue) and lung collagen content were quantified in the Sirius red stained lung tissue histology sections by high resolution, automated digital image analysis (Biocellvia, France) on Day 21 after lung fibrosis induction by bleomycin (BLM) instillation and following a 14-day oral gavage treatment with LAU-7b SDI (fenretinide, two doses), pirfenidone (reference drug) or vehicle only. Full field analysis of 2 lung sections per animal was conducted and the results were expressed as a mean percentage of total surface. This test is considered highly reliable, offering reproducible and observer-independent assessment of quantitative analysis of fibrosis.

[3] = test system: Normal human lung fibroblast cells (NHLF cells, ATCC CRL-7000); experiment: COL1A1 mRNA transcript by qRT-PCR after TGF-β1 exposure in NHLF; type: cell-based; conditions: TGF-β1 2 ng/mL + fenretinide 1, 2, 3, 4 μM, 3 days
Method: NHLF cells were incubated for 3 days at 37° C. and treated with TGF-β1 (2 ng/mL) or TGF-β1 (2 ng/mL)+Fenretinide (1, 2, 3, 4 μM). At the end of the 3 day-treatment period, media was removed using a vacuum pump and total RNA was isolated using the TriReagent protocol (BioShop) and cDNA was obtained by reverse transcription using the SUPERSCRIPT® VILO®. COL1A1 transcript levels were determined by qRT-PCR using the Fast SyBR Master Mix and specific probes, and quantified following the ΔΔCT, normalized to PUM-1 expression as internal control. The experiments were performed in quadruplicate.

[4] = test system: VEGF; experiment: Mouse model of LPS-induced acute respiratory distress syndrome, BALF VEGF; type: in vivo; conditions: inhaled fenretinide, LPS-induced ARDS mouse model
[5] = test system: lung fibroblast-populated long microtissue; experiment: Lung fibroblast-populated long microtissue, model of traction bronchiectasis; type: cell-based, human
From the text: In a fibrotic lung, traction bronchiectasis occurs when small bronchial openings dilate due to traction force exerted by the surrounding fibrotic tissue. To model this unique fibrosis feature of the lung, stress concentrations were patterned to induce the dilation of tissue openings in the engineered microtissues described in Example 2. In order to further increase local stress levels, rigid micropillars were designed to support the long microtissue. In order to experimentally model the mechanical process of traction bronchiectasis, lung fibroblast-populated long microtissue was induced to fibrosis using TGF-β1 treatment (5 ng/ml). Continuous TGF-β1 treatment for 6 days induced increased expression of α-SMA and pro-collagen type 1 across the entire microtissue, in addition to dilated tissue openings around the micropillars. These effects were absent in untreated conditions. To examine the effects of fenretinide (2 μM and 4 μM doses) in inhibiting traction bronchiectasis, fenretinide was co-administered with TGF-β1 at the beginning of long microtissue culture and remained for 6 days. The unique geometry of the long microtissue allows tissue opening (hole) formation around micropillars under elevated contractile force generated by the differentiated myofibroblasts, mimicking the traction bronchiectasis. […] FIG. 9 presents the quantified opening area/total tissue area ratio.

[6] = test system: Normal human lung fibroblast cells (NHLF cells, ATCC CRL-7000); experiment: α-SMA protein by ELISA after TGF-β1 exposure in NHLF; type: cell-based; conditions: TGF-β1 2 ng/mL + fenretinide 1, 2, 3, 4 μM, 3 days
Method: NHLF cells were incubated for 3 days at 37° C. and treated with TGF-β1 (2 ng/mL) or TGF-β1 (2 ng/mL)+fenretinide (1, 2, 3, 4 μM). At the end of the 3 day-treatment period, media was collected in identified tubes, centrifuged at 2,000×g for 20 minutes and stored at −80° C. Cells were collected using trypsin, transferred in identified tubes and centrifuged at 1,000×g for 5 minutes. Cells were then washed twice in phosphate buffered saline (PBS) 1X prior to be resuspended in ELISA lysis buffer. α-SMA protein contents were determined using Abcam ELISA detection kit (Ab240678). The experiment was performed in quadruplicate.

[7] = fenretinide 5 mg/kg (as LAU-7b SDI)
[8] = fenretinide 10 mg/kg (as LAU-7b SDI), pirfenidone 100 mg/kg

CC1=C(/C=C/C(C)=C/C=C/C(C)=C/C(=O)Nc2ccc(O)cc2)C(C)(C)CCC1 [fenretinide, 4-hydroxyphenyl retinamide]
levels of DHA and AA and sphingolipids imbalance in the lungs and plasma [1]: correct the levels
lung inflammation [1]: reduction
pulmonary load of Pseudomonas aeruginosa [1]: significant decrease
Ashcroft score vs BLM control [2, 7]: also reduced
percentage of collagen content, automated Sirius red analysis, vs BLM control [2, 7]: did not induce statistically significant reduction
percentage of pulmonary foci, automated Sirius red analysis, vs BLM control [2, 7]: did not induce statistically significant reduction
Ashcroft score vs BLM control [2, 8]: reduced significantly
percentage of collagen content, automated Sirius red analysis, vs BLM control [2, 8]: reduced significantly (p<0.05)
percentage of pulmonary foci, automated Sirius red analysis, vs BLM control [2, 8]: reduced significantly (p<0.05)
induction of fibrotic marker COL1A1 gene expression (qRT-PCR) [3]: attenuates, in a dose-dependent manner; also recorded: dose-dependent attenuation
bronchoalveolar lavage fluid (BALF) VEGF [4]: significant increase
expression level of α-SMA in the long microtissue ([5]; TGF-β1 5 ng/ml, 6 days, 4 μM): strongly inhibited
pro-collagen expression in the long microtissue ([5]; TGF-β1 5 ng/ml, 6 days, 4 μM): a similar trend
tissue openings around micropillars (traction bronchiectasis) ([5]; co-administered with TGF-β1 5 ng/ml for 6 days, 2 μM and 4 μM): tissue openings remained small
induction of fibrotic marker α-SMA protein levels (ELISA) [6]: attenuate and, at certain doses, completely abolish; also recorded: attenuates in a dose-dependent manner; also recorded: dose-dependent attenuation
